Source: US20090275583A1, “ANTIVIRAL COMPOUNDS AND USE THEREOF” (Myriad Genetics, Incorporated, priority 2006, published 2009)
Read-outs that look alike come from different tables or passages of the source.

Tests used:
HIV-1NL4-3 = assay: P4-MAGI assay; assay type: cell-based
Excerpt: P4 cells were used to test the effects of compounds on virus fusion activity. P4 cells are HIV-1 infectable CD4^+ HeLa cells that bear the bacterial lacZ gene under the control of a minimal HIV-1 LTR. Charneau, et. al., J. Mol. Biol. 241:651-662 (1994). When these cells are infected with HIV-1, β-galactosidase is expressed due to Tat activation of the viral LTR. In this assay, P4 cells were infected with the laboratory adapted strain HIV-1NL4-3 at a multiplicity of infection of 1 in the presence of DEAE-Dextran. Immediately after addition of virus to the cells, increasing concentrations of compound were added to the cells. […] The effect on cell viability (TC50, concentration of compound that inhibits growth by 50%) was determined in mock-infected cells with the WST-1 Cell Proliferation Reagent (Roche Diagnostics).

[1] = test system: HIV-1 laboratory strain, NL4-3; assay: MT-4 cytoprotection assay; assay type: cell-based
Method: The HTLV-1 transformed T cell line, MT-4, is highly susceptible to HIV-1 infection. Anti-HIV-1 agents were evaluated in this target cell line by protection from the HIV-induced cytopathic effect. In this assay, viability of both HIV-1 and mock-infected cells was assessed in a […] assay that monitors the ability of metabolically-active cells to reduce the tetrazolium salt WST-1. Cytoprotection by antiviral compounds is indicated by the positive readout of increased WST-1 cleavage.
Briefly, exponentially growing MT-4 cells were mock-infected or batch-infected with the HIV-1 laboratory strain, NL4-3, at a multiplicity of infection of 0.0005. Following a two hour infection, the cells were washed to remove unbound virus and plated in the presence of increasing concentrations of compound. After four days incubation, cytoprotection in the infected cells and compound toxicity in mock-infected cells were analyzed using the WST-1 assay.

[2] = Human immunodeficiency virus 1, 24 h, P4 cells, 24 hour incubation, β-galactosidase expression, read-out: P4-MAGI IC50
[3] = Human immunodeficiency virus 1, text statement, less than about 100 nm, read-out: P4-MAGI assay IC50
[4] = Human immunodeficiency virus 1, NL43, MT4, 96 h, MT-4 cells, four days incubation, WST-1 readout, read-out: MT4 EC50
[5] = Human immunodeficiency virus 1, NL43, less than about 100 nm, read-out: MT-4 assay EC50 (concentration of compound that reduces the virus induced cytopathic effect by 50%)

SMILES | IC50 (HIV-1NL4-3; [2]) | other results
C=C(C)[C@@H]1CC[C@]2(C(=O)NCCc3cccc(C(=O)NCc4ccc(C(=O)O)cn4)c3)CC[C@]3(C)C(CCC4[C@@]5(C)CC[C@H](O)C(C)(C)C5CC[C@]43C)C12 (stereo partly drawn) [Example 76] | 10.4 nM | IC50 (HIV-1NL4-3; [3]): < 100 nM; EC50 [1, 4]: 89 nM; EC50 [1, 5]: < 100 nM
C=C(C)[C@@H]1CC[C@]2(C(=O)NCc3cccc(C(=O)NCCc4ccc(C(=O)O)cc4)c3)CC[C@]3(C)C(CCC4[C@@]5(C)CC[C@H](O)C(C)(C)C5CC[C@]43C)C12 (stereo partly drawn) [Example 9] | 22.3 nM | IC50 (HIV-1NL4-3; [3]): < 100 nM; EC50 [1, 4]: 5.5 nM; EC50 [1, 5]: < 100 nM
C=C(C)[C@@H]1CC[C@]2(C(=O)NCc3cccc(C(=O)NCCC(=O)O)c3)CC[C@]3(C)C(CCC4[C@@]5(C)CC[C@H](O)C(C)(C)C5CC[C@]43C)C12 (stereo partly drawn) [Example 3] | – | EC50 [1, 4]: 10000 nM
C=C(C)[C@@H]1CC[C@]2(C(=O)NCc3ccc(C(=O)NCCNC(C)=O)cc3)CC[C@]3(C)C(CCC4[C@@]5(C)CC[C@H](O)C(C)(C)C5CC[C@]43C)C12 (stereo partly drawn) [Example 52] | – | EC50 [1, 4]: 10000 nM
C=C(C)[C@@H]1CC[C@]2(C(=O)NCc3ccc(C(=O)NCCNC(=O)OCc4ccccc4)cc3)CC[C@]3(C)C(CCC4[C@@]5(C)CC[C@H](O)C(C)(C)C5CC[C@]43C)C12 (stereo partly drawn) [Example 53] | – | EC50 [1, 4]: 10000 nM
C=C(C)[C@@H]1CC[C@]2(C(=O)NCc3ccc(C(=O)NCCC(=O)O)cc3)CC[C@]3(C)C(CCC4[C@@]5(C)CC[C@H](O)C(C)(C)C5CC[C@]43C)C12 (stereo partly drawn) [Example 49] | – | EC50 [1, 4]: 10000 nM
C=C(C)[C@@H]1CC[C@]2(C(=O)NCc3ccc(C(=O)NCCCCCCC(=O)O)cc3)CC[C@]3(C)C(CCC4[C@@]5(C)CC[C@H](O)C(C)(C)C5CC[C@]43C)C12 (stereo partly drawn) [Example 51] | – | EC50 [1, 4]: 10000 nM
C=C(C)[C@@H]1CC[C@]2(C(=O)NCCc3cccc(OCCCCC(=O)O)c3)CC[C@]3(C)C(CCC4[C@@]5(C)CC[C@H](O)C(C)(C)C5CC[C@]43C)C12 (stereo partly drawn) [Example 113] | 721 nM | –
C=C(C)[C@@H]1CC[C@]2(C(=O)NCc3ccc(F)c(C(=O)NCCc4cccc(C(=O)OC)c4)c3)CC[C@]3(C)C(CCC4[C@@]5(C)CC[C@H](O)C(C)(C)C5CC[C@]43C)C12 (stereo partly drawn) [Example 106] | 1300 nM | –
CC(O)(CO)[C@@H]1CC[C@]2(C(=O)NCc3cccc(C(=O)NCCCCC(=O)O)c3)CC[C@]3(C)C(CCC4[C@@]5(C)CC[C@H](O)C(C)(C)C5CC[C@]43C)C12 (single isomer, unassigned) [Example 140] | – | IC50 (HIV-1NL4-3; P4 cells, 24 hour incubation, β-galactosidase expression, read-out: P4-MAGI IC50): 1600 nM
C=C(C)[C@@H]1CC[C@]2(C(=O)NCCc3cccc(C(=O)NC4CCC(C(=O)OC)CC4)c3)CC[C@]3(C)C(CCC4[C@@]5(C)CC[C@H](O)C(C)(C)C5CC[C@]43C)C12 (stereo partly drawn) [Example 207] | 193 nM | –
C=C(C)[C@@H]1CC[C@]2(C(=O)NCC(C)c3cccc(C(=O)NCc4cccc(C(=O)O)c4C)c3)CC[C@]3(C)C(CCC4[C@@]5(C)CC[C@H](O)C(C)(C)C5CC[C@]43C)C12 (stereo partly drawn) [Example 83] | 270 nM | –
C=C(C)[C@@H]1CC[C@]2(C(=O)NCc3cccc(C(=O)NCc4ccccc4C(=O)O)c3)CC[C@]3(C)C(CCC4[C@@]5(C)CC[C@H](O)C(C)(C)C5CC[C@]43C)C12 (stereo partly drawn) [Example 8] | 875 nM | –
C=C(C)[C@@H]1CC[C@]2(C(=O)NCc3cccc(-c4noc(Cc5ccc(C#N)cc5)n4)c3)CC[C@]3(C)C(CCC4[C@@]5(C)CC[C@H](O)C(C)(C)C5CC[C@]43C)C12 (stereo partly drawn) [Example 276] | 10000 nM | –
C=C(C)[C@@H]1CC[C@]2(C(=O)NCc3cccc(CNC(=O)c4ccc(C(=O)O)c(C(=O)O)c4)c3)CC[C@]3(C)C(CCC4[C@@]5(C)CC[C@H](O)C(C)(C)C5CC[C@]43C)C12 (stereo partly drawn) [Example 78] | 7000 nM | –
C=C(C)[C@@H]1CC[C@]2(C(=O)NCCc3cccc(C(=O)NCc4ncccc4C(=O)O)c3)CC[C@]3(C)C(CCC4[C@@]5(C)CC[C@H](O)C(C)(C)C5CC[C@]43C)C12 (stereo partly drawn) [Example 228] | 135 nM | –
C=C(C)[C@@H]1CC[C@]2(C(=O)NCc3cccc(C(=O)Nc4ccc(O)c(C(=O)O)c4)c3)CC[C@]3(C)C(CCC4[C@@]5(C)CC[C@H](O)C(C)(C)C5CC[C@]43C)C12 (stereo partly drawn) [Example 12] | 7200 nM | –
C=C(C)[C@@H]1CC[C@]2(C(=O)NCCc3cccc(S(=O)(=O)NCc4cccc(C(=O)O)c4)c3)CC[C@]3(C)C(CCC4[C@@]5(C)CC[C@H](O)C(C)(C)C5CC[C@]43C)C12 (stereo partly drawn) [Example 249] | 143 nM | –
C=C(C)[C@@H]1CC[C@]2(C(=O)NCc3cccc(C(=O)NCCc4cccc(C(=O)O)c4)c3)CC[C@]3(C)C(CCC4[C@@]5(C)CC[C@H](O)C(C)(C)C5CC[C@]43C)C12 (stereo partly drawn) [Example 16] | – | EC50 [1, 4]: 210 nM

SMILES | IC50 (HIV-1NL4-3; [2]) | other results
C=C(C)[C@@H]1CC[C@]2(C(=O)NCc3cccc(C(=O)Nc4ccc(C(=O)O)cc4)c3)CC[C@]3(C)C(CCC4[C@@]5(C)CC[C@H](O)C(C)(C)C5CC[C@]43C)C12 (stereo partly drawn) [Example 14] | 1800 nM | –
C=C(C)[C@@H]1CC[C@]2(C(=O)NCC(C)c3cccc(C(=O)NCc4cccc(C(=O)O)c4)c3)CC[C@]3(C)C(CCC4[C@@]5(C)CC[C@H](O)C(C)(C)C5CC[C@]43C)C12 (stereo partly drawn) [Example 82] | 150 nM | –
C=C(C)[C@@H]1CC[C@]2(C(=O)NCCc3cccc(C(=O)N4CCC(c5ccccc5)CC4)c3)CC[C@]3(C)C(CCC4[C@@]5(C)CC[C@H](O)C(C)(C)C5CC[C@]43C)C12 (stereo partly drawn) [Example 205] | 1000 nM | –
C=C(C)[C@@H]1CC[C@]2(C(=O)NCc3cccc(-c4cccc(C(=O)O)c4)c3)CC[C@]3(C)C(CCC4[C@@]5(C)CC[C@H](O)C(C)(C)C5CC[C@]43C)C12 (stereo partly drawn) [Example 128] | 1000 nM | –
C=C(C)[C@@H]1CC[C@]2(C(=O)NCc3cccc(-c4cccc(C(=O)NCC(=O)OCC)c4)c3)CC[C@]3(C)C(CCC4[C@@]5(C)CC[C@H](O)C(C)(C)C5CC[C@]43C)C12 (stereo partly drawn) [Example 131] | 6500 nM | –
C=C(C)[C@@H]1CC[C@]2(C(=O)NCCc3cc(C(=O)NCc4ccc(C(=O)OC)cn4)ccc3F)CC[C@]3(C)C(CCC4[C@@]5(C)CC[C@H](O)C(C)(C)C5CC[C@]43C)C12 (stereo partly drawn) [Example 260] | 150 nM | –
C=C(C)[C@@H]1CC[C@]2(C(=O)NCCc3cccc(C(=O)NC(Cc4ccc(O)cc4)C(=O)OC)c3)CC[C@]3(C)C(CCC4[C@@]5(C)CC[C@H](O)C(C)(C)C5CC[C@]43C)C12 (stereo partly drawn) [Example 144] | 204 nM | –
C=C(C)[C@@H]1CC[C@]2(C(=O)NCCc3cccc(OCC(O)c4ccc(C(=O)O)cc4)c3)CC[C@]3(C)C(CCC4[C@@]5(C)CC[C@H](O)C(C)(C)C5CC[C@]43C)C12 (stereo partly drawn) [Example 220] | 259 nM | –
C=C(C)[C@@H]1CC[C@]2(C(=O)NCc3cccc(C(=O)NCc4cccc(C(=O)O)n4)n3)CC[C@]3(C)C(CCC4[C@@]5(C)CC[C@H](O)C(C)(C)C5CC[C@]43C)C12 (stereo partly drawn) [Example 91] | 3900 nM | –
C=C(C)[C@@H]1CC[C@]2(C(=O)NCc3cccc(COCc4cccc(C(=O)O)c4)c3)CC[C@]3(C)C(CCC4[C@@]5(C)CC[C@H](O)C(C)(C)C5CC[C@]43C)C12 (stereo partly drawn) [Example 206] | 444 nM | –
C=C(C)[C@@H]1CC[C@]2(C(=O)NCCc3cccc(C(=O)NCC(=O)NC)c3)CC[C@]3(C)C(CCC4[C@@]5(C)CC[C@H](O)C(C)(C)C5CC[C@]43C)C12 (stereo partly drawn) [Example 71] | 2700 nM | –
C=C(C)[C@@H]1CC[C@]2(C(=O)NCc3cccc(C(=O)NCc4cccc(Br)c4)c3)CC[C@]3(C)C(CCC4[C@@]5(C)CC[C@H](O)C(C)(C)C5CC[C@]43C)C12 (stereo partly drawn) [Example 30] | 410 nM | –
C=C(C)[C@@H]1CC[C@]2(C(=O)NCCc3cccc(S(=O)(=O)NCc4cccc(C(=O)OC)c4)c3)CC[C@]3(C)C(CCC4[C@@]5(C)CC[C@H](O)C(C)(C)C5CC[C@]43C)C12 (stereo partly drawn) [Example 248] | 208 nM | –
C=C(C)[C@@H]1CC[C@]2(C(=O)NCc3cccc(C(=O)NCc4ccc(OC)cc4OC)c3)CC[C@]3(C)C(CCC4[C@@]5(C)CC[C@H](O)C(C)(C)C5CC[C@]43C)C12 (stereo partly drawn) [Example 46] | 59 nM | IC50 (HIV-1NL4-3; [3]): < 100 nM
C=C(C)[C@@H]1CC[C@]2(C(=O)NCc3cccc(C(=O)NCc4ccc(OCCC(=O)O)c(C(=O)O)c4)c3)CC[C@]3(C)C(CCC4[C@@]5(C)CC[C@H](O)C(C)(C)C5CC[C@]43C)C12 (stereo partly drawn) [Example 119] | 1100 nM | –
C=C(C)[C@@H]1CC[C@]2(C(=O)NCc3ccc(F)c(C(=O)NCc4cccc(C(=O)OC)c4)c3)CC[C@]3(C)C(CCC4[C@@]5(C)CC[C@H](O)C(C)(C)C5CC[C@]43C)C12 (stereo partly drawn) [Example 110] | 856 nM | –
C=C(C)[C@@H]1CC[C@]2(C(=O)NCc3ccc(C(=O)O)o3)CC[C@]3(C)C(CCC4[C@@]5(C)CC[C@H](O)C(C)(C)C5CC[C@]43C)C12 (stereo partly drawn) [Example 88] | 6900 nM | –
C=C(C)[C@@H]1CC[C@]2(C(=O)NCc3ccc(C(=O)NCCCCC(=O)O)cc3)CC[C@]3(C)C(CCC4[C@@]5(C)CC[C@H](O)C(C)(C)C5CC[C@]43C)C12 (stereo partly drawn) [Example 50] | – | EC50 [1, 4]: 10000 nM
C=C(C)[C@@H]1CC[C@]2(C(=O)NCc3cccc(C(=O)O)n3)CC[C@]3(C)C(CCC4[C@@]5(C)CC[C@H](O)C(C)(C)C5CC[C@]43C)C12 (stereo partly drawn) [Example 86] | 3600 nM | –
